Data reported in ChEMBL document CHEMBL3044945, “Synthesis of 1,3,5-trisubstituted pyrazoline nucleus containing compounds and screening for antimicrobial activity” (2012).
≈ marks a conversion by molar mass, not a printed value.

Legend:
Assay type in all cases: functional
Aspergillus niger [1] = experiment: Antifungal activity against Aspergillus niger MTCC 2546 at 500 ug/ml after 48 hr by cup-plate method; conditions: MTCC 2546, 48 h, read-out: DIZ
Pseudomonas aeruginosa [2] = experiment: Antibacterial activity against Pseudomonas aeruginosa MTCC 424 after 24 to 48 hr by tube dilution method
Micrococcus luteus [3] = experiment: Antibacterial activity against Micrococcus luteus MTCC 1538 at 250 ug/ml after 48 hr by cup-plate method; conditions: MTCC 1538, 48 h, read-out: DIZ
Penicillium chrysogenum [4] = experiment: Antifungal activity against Penicillium chrysogenum MTCC 161 at 250 ug/ml after 48 hr by cup-plate method; conditions: MTCC 161, 48 h, read-out: DIZ
Aspergillus niger [5] = experiment: Antifungal activity against Aspergillus niger MTCC 2546 at 1250 ug/ml after 48 hr by cup-plate method; conditions: MTCC 2546, 48 h, read-out: DIZ
Escherichia coli [6] = experiment: Antibacterial activity against Escherichia coli MTCC 1573 at 750 ug/ml after 48 hr by cup-plate method; conditions: MTCC 1573, 48 h, read-out: DIZ
Bacillus pumilus [7] = experiment: Antibacterial activity against Bacillus pumilus MTCC 1456 at 250 ug/ml after 48 hr by cup-plate method; conditions: MTCC 1456, 48 h, read-out: DIZ
Bacillus pumilus [8] = experiment: Antibacterial activity against Bacillus pumilus MTCC 1456 at 100 ug/ml after 48 hr by cup-plate method; conditions: MTCC 1456, 48 h, read-out: DIZ
Aspergillus niger [9] = experiment: Antifungal activity against Aspergillus niger MTCC 2546 at 100 ug/ml after 48 hr by cup-plate method; conditions: MTCC 2546, 48 h, read-out: DIZ
Bacillus subtilis [10] = experiment: Antibacterial activity against Bacillus subtilis MTCC 441 at 1250 ug/ml after 48 hr by cup-plate method; conditions: MTCC 441, 48 h, read-out: DIZ
Bacillus pumilus [11] = experiment: Antibacterial activity against Bacillus pumilus MTCC 1456 at 1250 ug/ml after 48 hr by cup-plate method; conditions: MTCC 1456, 48 h, read-out: DIZ
Micrococcus luteus [12] = experiment: Antibacterial activity against Micrococcus luteus MTCC 1538 after 24 to 48 hr by tube dilution method
Staphylococcus aureus [13] = experiment: Antibacterial activity against Staphylococcus aureus MTCC 1430 after 24 to 48 hr by tube dilution method
Escherichia coli [14] = experiment: Antibacterial activity against Escherichia coli MTCC 1573 at 250 ug/ml after 48 hr by cup-plate method; conditions: MTCC 1573, 48 h, read-out: DIZ
Pseudomonas aeruginosa [15] = experiment: Antibacterial activity against Pseudomonas aeruginosa MTCC 424 at 750 ug/ml after 48 hr by cup-plate method; conditions: MTCC 424, 48 h, read-out: DIZ
Aspergillus niger [16] = experiment: Antifungal activity against Aspergillus niger MTCC 2546 at 250 ug/ml after 48 hr by cup-plate method; conditions: MTCC 2546, 48 h, read-out: DIZ
Pseudomonas fluorescens [17] = experiment: Antibacterial activity against Pseudomonas fluorescens MTCC 2421 at 1250 ug/ml after 48 hr by cup-plate method; conditions: MTCC 2421, 48 h, read-out: DIZ
Staphylococcus aureus [18] = experiment: Antibacterial activity against Staphylococcus aureus MTCC 1430 at 500 ug/ml after 48 hr by cup-plate method; conditions: MTCC 1430, 48 h, read-out: DIZ
Escherichia coli [19] = experiment: Antibacterial activity against Escherichia coli MTCC 1573 at 1250 ug/ml after 48 hr by cup-plate method; conditions: MTCC 1573, 48 h, read-out: DIZ
Penicillium chrysogenum [20] = experiment: Antifungal activity against Penicillium chrysogenum MTCC 161 at 1250 ug/ml after 48 hr by cup-plate method; conditions: MTCC 161, 48 h, read-out: DIZ
Micrococcus luteus [21] = experiment: Antibacterial activity against Micrococcus luteus MTCC 1538 at 750 ug/ml after 48 hr by cup-plate method; conditions: MTCC 1538, 48 h, read-out: DIZ
Aspergillus niger [22] = experiment: Antifungal activity against Aspergillus niger MTCC 2546 after 24 to 48 hr by tube dilution method
Penicillium chrysogenum [23] = experiment: Antifungal activity against Penicillium chrysogenum MTCC 161 at 1000 ug/ml after 48 hr by cup-plate method; conditions: MTCC 161, 48 h, read-out: DIZ
Penicillium chrysogenum [24] = experiment: Antifungal activity against Penicillium chrysogenum MTCC 161 after 24 to 48 hr by tube dilution method
Bacillus subtilis [25] = experiment: Antibacterial activity against Bacillus subtilis MTCC 441 at 500 ug/ml after 48 hr by cup-plate method; conditions: MTCC 441, 48 h, read-out: DIZ
Pseudomonas fluorescens [26] = experiment: Antibacterial activity against Pseudomonas fluorescens MTCC 2421 at 1000 ug/ml after 48 hr by cup-plate method; conditions: MTCC 2421, 48 h, read-out: DIZ
Penicillium chrysogenum [27] = experiment: Antifungal activity against Penicillium chrysogenum MTCC 161 at 500 ug/ml after 48 hr by cup-plate method; conditions: MTCC 161, 48 h, read-out: DIZ
Escherichia coli [28] = experiment: Antibacterial activity against Escherichia coli MTCC 1573 after 24 to 48 hr by tube dilution method
Bacillus pumilus [29] = experiment: Antibacterial activity against Bacillus pumilus MTCC 1456 at 500 ug/ml after 48 hr by cup-plate method; conditions: MTCC 1456, 48 h, read-out: DIZ
Penicillium chrysogenum [30] = experiment: Antifungal activity against Penicillium chrysogenum MTCC 161 at 100 ug/ml after 48 hr by cup-plate method; conditions: MTCC 161, 48 h, read-out: DIZ
Pseudomonas fluorescens [31] = experiment: Antibacterial activity against Pseudomonas fluorescens MTCC 2421 at 100 ug/ml after 48 hr by cup-plate method; conditions: MTCC 2421, 48 h, read-out: DIZ
Bacillus pumilus [32] = experiment: Antibacterial activity against Bacillus pumilus MTCC 1456 at 750 ug/ml after 48 hr by cup-plate method; conditions: MTCC 1456, 48 h, read-out: DIZ
Bacillus pumilus [33] = experiment: Antibacterial activity against Bacillus pumilus MTCC 1456 at 1000 ug/ml after 48 hr by cup-plate method; conditions: MTCC 1456, 48 h, read-out: DIZ
Bacillus pumilus [34] = experiment: Antibacterial activity against Bacillus pumilus MTCC 1456 after 24 to 48 hr by tube dilution method
Penicillium chrysogenum [35] = experiment: Antifungal activity against Penicillium chrysogenum MTCC 161 at 750 ug/ml after 48 hr by cup-plate method; conditions: MTCC 161, 48 h, read-out: DIZ
Micrococcus luteus [36] = experiment: Antibacterial activity against Micrococcus luteus MTCC 1538 at 1000 ug/ml after 48 hr by cup-plate method; conditions: MTCC 1538, 48 h, read-out: DIZ
Escherichia coli [37] = experiment: Antibacterial activity against Escherichia coli MTCC 1573 at 1000 ug/ml after 48 hr by cup-plate method; conditions: MTCC 1573, 48 h, read-out: DIZ
Micrococcus luteus [38] = experiment: Antibacterial activity against Micrococcus luteus MTCC 1538 at 1250 ug/ml after 48 hr by cup-plate method; conditions: MTCC 1538, 48 h, read-out: DIZ
Staphylococcus aureus [39] = experiment: Antibacterial activity against Staphylococcus aureus MTCC 1430 at 750 ug/ml after 48 hr by cup-plate method; conditions: MTCC 1430, 48 h, read-out: DIZ
Pseudomonas fluorescens [40] = experiment: Antibacterial activity against Pseudomonas fluorescens MTCC 2421 at 250 ug/ml after 48 hr by cup-plate method; conditions: MTCC 2421, 48 h, read-out: DIZ
Pseudomonas aeruginosa [41] = experiment: Antibacterial activity against Pseudomonas aeruginosa MTCC 424 at 500 ug/ml after 48 hr by cup-plate method; conditions: MTCC 424, 48 h, read-out: DIZ
Aspergillus niger [42] = experiment: Antifungal activity against Aspergillus niger MTCC 2546 at 1000 ug/ml after 48 hr by cup-plate method; conditions: MTCC 2546, 48 h, read-out: DIZ
Micrococcus luteus [43] = experiment: Antibacterial activity against Micrococcus luteus MTCC 1538 at 500 ug/ml after 48 hr by cup-plate method; conditions: MTCC 1538, 48 h, read-out: DIZ
Bacillus subtilis [44] = experiment: Antibacterial activity against Bacillus subtilis MTCC 441 after 24 to 48 hr by tube dilution method
Pseudomonas fluorescens [45] = experiment: Antibacterial activity against Pseudomonas fluorescens MTCC 2421 at 750 ug/ml after 48 hr by cup-plate method; conditions: MTCC 2421, 48 h, read-out: DIZ

**Q.** `NC(=S)N1N=C(c2cccc3ccccc23)CC1c1ccc([N+](=O)[O-])cc1` (stereo not given) was tested. Which zone of inhibition at 500 µg/mL (Aspergillus niger [1]) did it give?
**A.** 17 mm

**Q.** And the MIC (Pseudomonas aeruginosa [2])?
**A.** 50 µg/mL (≈ 133 µM)

**Q.** And the zone of inhibition at 250 µg/mL (Micrococcus luteus [3])?
**A.** 9 mm

**Q.** And the zone of inhibition at 250 µg/mL (Penicillium chrysogenum [4])?
**A.** 11 mm

**Q.** And the zone of inhibition at 1250 µg/mL (Aspergillus niger [5])?
**A.** 26 mm

**Q.** And the zone of inhibition at 750 µg/mL (Escherichia coli [6])?
**A.** 14 mm

**Q.** And the zone of inhibition at 250 µg/mL (Bacillus pumilus [7])?
**A.** 11 mm

**Q.** What about the zone of inhibition at 100 µg/mL (Bacillus pumilus [8]) of the same molecule?
**A.** 10 mm

**Q.** What about the zone of inhibition at 100 µg/mL (Aspergillus niger [9]) of the same molecule?
**A.** 10 mm

**Q.** What about the zone of inhibition at 1250 µg/mL (Bacillus subtilis [10]) of the same molecule?
**A.** 22 mm

**Q.** And the zone of inhibition at 1250 µg/mL (Bacillus pumilus [11])?
**A.** 21 mm

**Q.** And the MIC (Micrococcus luteus [12])?
**A.** 150 µg/mL (≈ 398 µM)

**Q.** What about the MIC (Staphylococcus aureus [13]) of the same molecule?
**A.** 150 µg/mL (≈ 398 µM)

**Q.** And the zone of inhibition at 250 µg/mL (Escherichia coli [14])?
**A.** 9 mm

**Q.** What about the zone of inhibition at 750 µg/mL (Pseudomonas aeruginosa [15]) of the same molecule?
**A.** 16 mm

**Q.** What about the zone of inhibition at 250 µg/mL (Aspergillus niger [16]) of the same molecule?
**A.** 11 mm

**Q.** What about the zone of inhibition at 1250 µg/mL (Pseudomonas fluorescens [17]) of the same molecule?
**A.** 24 mm

**Q.** And the zone of inhibition at 500 µg/mL (Staphylococcus aureus [18])?
**A.** 10 mm

**Q.** What about the zone of inhibition at 1250 µg/mL (Escherichia coli [19]) of the same molecule?
**A.** 18 mm

**Q.** And the zone of inhibition at 1250 µg/mL (Penicillium chrysogenum [20])?
**A.** 23 mm

**Q.** And the zone of inhibition at 750 µg/mL (Micrococcus luteus [21])?
**A.** 14 mm

**Q.** And the MIC (Aspergillus niger [22])?
**A.** 30 µg/mL (≈ 79.7 µM)

**Q.** And the zone of inhibition at 1000 µg/mL (Penicillium chrysogenum [23])?
**A.** 21 mm

**Q.** What about the MIC (Penicillium chrysogenum [24]) of the same molecule?
**A.** 30 µg/mL (≈ 79.7 µM)

**Q.** And the zone of inhibition at 500 µg/mL (Bacillus subtilis [25])?
**A.** 12 mm

**Q.** What about the zone of inhibition at 1000 µg/mL (Pseudomonas fluorescens [26]) of the same molecule?
**A.** 23 mm

**Q.** What about the zone of inhibition at 500 µg/mL (Penicillium chrysogenum [27]) of the same molecule?
**A.** 16 mm

**Q.** What about the MIC (Escherichia coli [28]) of the same molecule?
**A.** 50 µg/mL (≈ 133 µM)

**Q.** What about the zone of inhibition at 500 µg/mL (Bacillus pumilus [29]) of the same molecule?
**A.** 16 mm

**Q.** And the zone of inhibition at 100 µg/mL (Penicillium chrysogenum [30])?
**A.** 10 mm

**Q.** What about the zone of inhibition at 100 µg/mL (Pseudomonas fluorescens [31]) of the same molecule?
**A.** 8 mm

**Q.** And the zone of inhibition at 750 µg/mL (Bacillus pumilus [32])?
**A.** 18 mm

**Q.** What about the zone of inhibition at 1000 µg/mL (Bacillus pumilus [33]) of the same molecule?
**A.** 19 mm

**Q.** What about the MIC (Bacillus pumilus [34]) of the same molecule?
**A.** 30 µg/mL (≈ 79.7 µM)

**Q.** What about the zone of inhibition at 750 µg/mL (Penicillium chrysogenum [35]) of the same molecule?
**A.** 19 mm

**Q.** What about the zone of inhibition at 1000 µg/mL (Micrococcus luteus [36]) of the same molecule?
**A.** 16 mm

**Q.** What about the zone of inhibition at 1000 µg/mL (Escherichia coli [37]) of the same molecule?
**A.** 16 mm

**Q.** What about the zone of inhibition at 1250 µg/mL (Micrococcus luteus [38]) of the same molecule?
**A.** 19 mm

**Q.** And the zone of inhibition at 750 µg/mL (Staphylococcus aureus [39])?
**A.** 11 mm

**Q.** What about the zone of inhibition at 250 µg/mL (Pseudomonas fluorescens [40]) of the same molecule?
**A.** 10 mm

**Q.** And the zone of inhibition at 500 µg/mL (Pseudomonas aeruginosa [41])?
**A.** 12 mm

**Q.** And the zone of inhibition at 1000 µg/mL (Aspergillus niger [42])?
**A.** 24 mm

**Q.** And the zone of inhibition at 500 µg/mL (Micrococcus luteus [43])?
**A.** 11 mm

**Q.** And the MIC (Bacillus subtilis [44])?
**A.** 30 µg/mL (≈ 79.7 µM)

**Q.** What about the zone of inhibition at 750 µg/mL (Pseudomonas fluorescens [45]) of the same molecule?
**A.** 22 mm
